Drawing on patent US7465719B2, “Carbamic acid compounds comprising an ester or ketone linkage as HDAC inhibitors” (Topotarget UK Limited, priority 2003, dated 2008), this text covers IC50 and melting point for 21 molecules.

Like-named read-outs stand apart in the source and are kept apart here.

Usually melting point stands for the temperature of the solid-liquid transition.

Data set [1] deals with JURKAT (human T-cell line). The data set can be described thus: Secondary assay: cell proliferation WST-1, Jurkat. The class given is cell-based. As to conditions: Jurkat cells, 48 hours, read-out: Cell Proliferation Inhibition WST-1 (IC50 unless otherwise specified) Jurkat. As for the experimental part:
(§1) Compounds with HDAC inhibition activity, as determined using the primary assay, were subsequently evaluated using secondary cell-based assays. […] Assay Method
(§2) Cells were plated in 96-well plates at 3-10×10^3 cells/well in 100 μL of culture medium. The following day, different concentrations of candidate compounds were added and the cells incubated at 37° C. for 48 hours. Subsequently, 10 μL/well of WST-1 reagent was added and the cells reincubated for 1 hour. After the incubation time, absorbance was measured.
(§3) WST-1 is a tetrazolium salt which is cleaved to formazan dye by cellular enzymes. An expansion in the number of viable cells results in an increase in the overall activity of mitochondrial dehydrogenases in the sample. This augmentation in the enzyme activity leads to an increase in the amount of formazan dye formed, which directly correlates to the number of metabolically active cells in the culture. The formazan dye produced is quantified by a scanning multiwell spectrophotometer by measuring the absorbance of the dye solution at 450 nm wavelength (reference wavelength 690 nm).
Percent activity (% activity) in reducing the number of viable cells was calculated for each test compound as: % activity={(S^C−B)/(S^o−B)}×100 wherein S^C denotes signal measured in the presence of the compound being tested, S^o denotes signal measured in the absence of the compound being tested, and B denotes the background signal measured in blank wells containing medium only. […] IC50 values were calculated using the software package Prism 3.0 (GraphPad Software Inc., San Diego, Calif.), setting top value at 100 and bottom value at 0.
For orientation: Formazan colour is commonly taken as a measure of viable cells.

For a further data set, the system named is HDAC (HeLa cell extract). The data set is described as follows: Primary assay: deacetylase activity, HeLa cell extract as source of HDAC. The class given is biochemical, human. As to conditions: read-out: HDAC Inhibition (IC50 unless otherwise specified) HeLa. As for the experimental part: Decreased activity indicates increased inhibition by the test compound.
Alternatively, the activity of the compounds as HDAC inhibitors was determined using a commercially available fluorescent assay kit: (Fluor de Lys™, BioMol Research Labs, Inc., Plymouth Meeting, USA).
Extensive comparative studies have shown that Primary Assay (1) and Primary Assay (2), discussed above, yield equivalent results. Primary Assay results reported herein are (a) exclusively from (1); (b) exclusively from (2); or (c) from both (1) and (2).
The HeLa cell extract was made from HeLa cells (ATCC Ref. No. CCL-2) by freeze-thawing three times in 60 mM Tris Cl pH 8.0, 450 mM NaCl, 30% glycerol. Two cell volumes of extraction buffer were used, and particulate material was centrifuged out (20800 g, 4° C., 10 minutes). The supernatant extract having deacetylase activity was aliquotted and frozen for storage.

The next data set has as its system HeLa cells. The data set is described as follows: Secondary assay: cell proliferation WST-1, HeLa. The class given is cell-based. As to conditions: Homo sapiens, read-out: Cell Proliferation Inhibition WST-1 (IC50 unless otherwise specified) HeLa.
From the text: Compounds with HDAC inhibition activity, as determined using the primary assay, were subsequently evaluated using secondary cell-based assays. The following cell lines were used: • HeLa—Human cervical adenocarcinoma cell line (ATCC ref. No. CCL-2). • K11—HPV E7 transformed human keratinocyte line provided by Pidder Jansen-Duerr, Institut für Biomedizinische Alternsforschung, Innsbruck, Austria. • NHEK-Ad—Primary human adult keratinocyte line (Cambrex Corp., East Rutherford, N.J., USA). • JURKAT—Human T-cell line (ATCC no. TIB-152). Assay Method
Cells were cultured, exposed to candidate compounds, and incubated for a time, and the number of viable cells was then assessed using the Cell Proliferation Reagent WST-1 from Boehringer Mannheim (Cat. No. […]), described below.
as §2, §3
(§4) IC50 values were calculated using the software package Prism 3.0 (GraphPad Software Inc., San Diego, Calif.), setting top value at 100 and bottom value at 0.

Data set [2] deals with K11 (HPV E7 transformed human keratinocyte line). The data set is described as follows: Secondary assay: cell proliferation WST-1, K11. The format is cell-based. As to conditions: read-out: Cell Proliferation Inhibition WST-1 (IC50 unless otherwise specified) K11. The procedure:
as §1, §2, §3, §4

The test system of data set [3] is NHEK-Ad (primary human adult keratinocyte line). The data set is described as follows: Secondary assay: cell proliferation WST-1, NHEK-Ad. As to conditions: read-out: Cell Proliferation Inhibition WST-1 (IC50 unless otherwise specified) NHEK-AD. The class given is cell-based. The procedure:
as §1, §2, §3, §4

The mark [4] stands for this setting: Homo sapiens, Keratinocyte, K11 cells, 48 hours.
[5] abbreviates: Homo sapiens, Keratinocyte, 48 h.

With oxamflatin [reference compound], the IC50 in data set [1] was 170 nM. Molecule `O=C(O)c1ccc(C2(C(=O)Oc3ccc(C(=O)NO)cc3)CCCCC2)cc1` [PX119102, 4-[1-({4-[(Hydroxyamino)carbonyl]phenoxy}carbonyl)cyclohexyl]-benzoic acid] yielded a melting point of 169 to 170 °C. In turn, `COC(=O)c1ccc(C2(C(=O)Oc3ccc(C(=O)NO)cc3)CCCCC2)cc1` [PX118480, Methyl 4-[1-({4-[(hydroxyamino)carbonyl]phenoxy}carbonyl) -cyclohexyl]benzoate] showed a melting point of 129 to 131 °C. Moreover, the IC50 in the data set with HDAC (HeLa cell extract) was 25 nM. The IC50 in the data set with HeLa cells (HeLa cells, 48 hours) was found to be 7900 nM. The IC50 in data set [2] (setting [4]) was determined as 1650 nM. Further, the IC50 in data set [1] (Homo sapiens) amounted to 780 nM. For `O=C(NO)c1ccc(OC(=O)C2(c3ccccc3F)CCCCC2)cc1` [PX119062, 4-[(Hydroxyamino)carbonyl]phenyl 1-(2-fluorophenyl) -cyclohexanecarboxylate], the melting point was in the range of 125 to 126 °C.

`O=C(NO)c1ccc(OC(=O)C2(c3ccc(O)cc3)CCCCC2)cc1` [PX119103, 4-[(Hydroxyamino)carbonyl]phenyl 1-(4-hydroxyphenyl) -cyclohexanecarboxylate] had a melting point of 93 to 94 °C.

With `O=C(NO)c1ccc(OC(=O)C2(c3ccc(F)cc3)CCCCC2)cc1` [PX119065, 4-[(Hydroxyamino)carbonyl]phenyl 1-(4-fluorophenyl) -cyclohexanecarboxylate], the melting point was 150 to 151 °C. Take `Nc1ccccc1NC(=O)c1ccc(CNC(=O)OCc2cccnc2)cc1` [MS-275, reference compound]: the IC50 in data set [2] (K11 cells, 48 hours) worked out at 9160 nM; in data set [3] (NHEK-AD cells, 48 hours) it was 3100 nM; in data set [1], 365 nM. Turning to `Cc1ccc(C2(C(=O)Oc3ccc(C(=O)NO)cc3)CCCCC2)cc1` [PX118966, 4-[(Hydroxyamino)carbonyl]phenyl 1-(4-methylphenyl) -cyclohexanecarboxylate], the melting point was in the range of 59 to 60 °C. Molecule `COc1ccc(C2(C(=O)Oc3ccc(C(=O)NO)cc3)CCCC2)cc1` [PX119063, 4-[(Hydroxyamino)carbonyl]phenyl 1-(4-methoxyphenyl) -cyclopentanecarboxylate] displayed a melting point of 143 to 144 °C. For the same molecule, the IC50 in the data set on HDAC (HeLa cell extract) was determined as 85 nM. For the same molecule, the IC50 with HeLa cells (HeLa cells, 48 hours) came to 4900 nM. Take `CC(C)(C)C(=O)Oc1ccc(C2(C(=O)Oc3ccc(C(=O)NO)cc3)CCCCC2)cc1` [PX119086, 4-[(Hydroxyamino)carbonyl]phenyl 1-{4-[(2,2-dimethylpropanoyl)oxy]-phenyl}-cyclohexane-carboxylate]: the melting point was 124 to 125 °C. For `CC(/C=C/C(=O)NO)=C\[C@@H](C)C(=O)c1ccc(N(C)C)cc1` [TSA, Trichostatin A, reference compound], the IC50 in the data set on HeLa cells (HeLa, 48 h) amounted to 350 nM; in data set [2] (setting [5]), 380 nM; in data set [3] (setting [5]) it was 200 nM; in data set [1] (Homo sapiens), 42 nM. For the molecule `O=C(NO)c1ccc(OC(=O)C2(c3c(F)cccc3Cl)CCCCC2)cc1` [PX119101, 4-[(Hydroxyamino)carbonyl]phenyl 1-(2-chloro-6-fluorophenyl) -cyclohexanecarboxylate], the melting point lay in the range of 101 to 102 °C. For `O=C(NO)c1ccc(OC(=O)C2(c3cccc(F)c3)CCCCC2)cc1` [PX119061, 4-[(Hydroxyamino)carbonyl]phenyl 1-(3-fluorophenyl) -cyclohexanecarboxylate], the melting point is 150 to 151 °C. For `O=C(NO)c1ccc(OC(=O)C2(c3ccc(Cl)cc3)CCCCC2)cc1` [PX119059, 4-[(Hydroxyamino)carbonyl]phenyl 1-(4-chlorophenyl) -cyclohexanecarboxylate], the melting point lay in the range of 145 to 146 °C.

Turning to `O=C(NO)c1ccc(OC(=O)C2(c3ccc(OC(=O)c4ccccc4)cc3)CCCCC2)cc1` [PX119085, 4-[1-({4-[(Hydroxyamino)carbonyl]phenoxy}carbonyl)cyclohexyl]-phenyl benzoate], the melting point fell in the range of 114 to 115 °C. The molecule `O=C(NO)c1ccc(OC(=O)C2(c3ccc(F)cc3Cl)CCCCC2)cc1` [PX119064, 4-[(Hydroxyamino)carbonyl]phenyl 1-(2-chloro-4-fluorophenyl) -cyclohexanecarboxylate] had a melting point of 164 to 165 °C. In turn, `CC(=O)Oc1ccc(C2(C(=O)Oc3ccc(C(=O)NO)cc3)CCCCC2)cc1` [PX118959, 4-[(Hydroxyamino)carbonyl]phenyl 1-[4-(acetyloxy)phenyl]-cyclohexanecarboxylate] had a melting point of 69 °C. Turning to `CCOc1ccc(C2(C(=O)Oc3ccc(C(=O)NO)cc3)CCCCC2)cc1` [PX118925, 4-[(Hydroxyamino)carbonyl]phenyl 1-(4-ethoxyphenyl) -cyclohexanecarboxylate], the melting point was 140 to 143 °C.

In the case of `COc1ccc(C2(C(=O)Oc3ccc(C(=O)NO)cc3)CCCCC2)cc1` [PX118478, 4-[(Hydroxyamino)carbonyl]phenyl 1-(4-methoxyphenyl)-cyclohexanecarboxylate], the melting point is 127 to 129 °C. For the same molecule, in the data set with HDAC (HeLa cell extract), the IC50 worked out at 23 nM. Also, the IC50 in the data set with HeLa cells (HeLa cells, 48 hours) stood at 4600 nM. The IC50 in data set [2] (setting [4]) stood at 13600 nM. The IC50 in data set [1] (Homo sapiens) is 500 nM. As for `CC(C)(C)OC(=O)c1ccc(C2(C(=O)Oc3ccc(C(=O)NO)cc3)CCCCC2)cc1` [PX118926, tert-Butyl 4-[1-({4-[(hydroxyamino)carbonyl]phenoxy}-carbonyl)cyclohexyl]benzoate], the melting point was 143 to 147 °C (dec.). Consider `O=C(NO)c1ccc(OC(=O)C2(c3ccccc3)CCCCC2)cc1` [PX118479, 4-[(Hydroxyamino)carbonyl]phenyl 1-phenylcyclohexanecarboxylate], for which the melting point lay within 142 to 144 °C. Moreover, the IC50 in the data set on HDAC (HeLa cell extract) is 52 nM. In the data set on HeLa cells (HeLa cells, 48 hours), the IC50 is 13700 nM. In addition, the IC50 in data set [2] (setting [4]) was found to be 21300 nM. For the same molecule, in data set [1] (Homo sapiens), the IC50 is 1250 nM.
